# Results taken from PubChem BioAssay AID248 (DTP/NCI, 2004).
# Where “and” joins values, the source holds several entries; their conditions need not be identical. Equal entries are not always repeated. Toxic doses and inconclusive results are not listed.
# Tested on: L1210 leukemia ip in BDF1 mice, survival T/C
# Assay: NCI In Vivo Anticancer Drug Screen. Data for tumor model L1210 Leukemia (intraperitoneal) in B6D2F1 (BDF1) mice
# Details: endpoint: mean survival time, higher = longer survival
# How it was run: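 Tumor was transplanted into mice, which were then dosed with test compound or vehicle alone. Survival was recorded for each group, and the treated figure was expressed relative to the control figure.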
# [1] = dose: 100.0 mg/kg/injection, schedule: Q04DX002 (ip), vehicle: Klucel (hydroxypropylcellulose) (HPC)
# [2] = dose: 200.0 mg/kg/injection, schedule: Q04DX002 (ip), vehicle: Klucel (hydroxypropylcellulose) (HPC)
# [3] = dose: 100.0 mg/kg/injection, schedule: Q04DX003 (ip), vehicle: saline with Tween-80
# [4] = dose: 200.0 mg/kg/injection, schedule: Q04DX003 (ip), vehicle: saline with Tween-80
# [5] = dose: 400.0 mg/kg/injection, schedule: Q04DX003 (ip), vehicle: saline with Tween-80
# [6] = dose: 400.0 mg/kg/injection, schedule: Q01DX001 (ip), vehicle: saline
# [7] = dose: 100.0 mg/kg/injection, schedule: Q01DX001 (ip), vehicle: saline
# [8] = dose: 200.0 mg/kg/injection, schedule: Q01DX001 (ip), vehicle: saline
structure (smiles),measurement,setting,value
C1=C(c2ccccc2)CCC1,T/C,"dose: 50.0 mg/kg/injection, schedule: Q01DX009 (ip), vehicle: Klucel (hydroxypropylcellulose) (HPC)",97 % of control
same,T/C,"dose: 100.0 mg/kg/injection, schedule: Q01DX009 (ip), vehicle: Klucel (hydroxypropylcellulose) (HPC)",97 % of control
same,T/C,"dose: 100.0 mg/kg/injection, schedule: Q04DX003 (ip), vehicle: Klucel (hydroxypropylcellulose) (HPC)",97 % of control
same,T/C,"dose: 200.0 mg/kg/injection, schedule: Q01DX009 (ip), vehicle: Klucel (hydroxypropylcellulose) (HPC)",100 % of control
same,T/C,"dose: 200.0 mg/kg/injection, schedule: Q04DX003 (ip), vehicle: Klucel (hydroxypropylcellulose) (HPC)",101 % of control
NNC(=O)CNc1ccc(Br)cc1F,T/C,[1],104 % of control
same,T/C,[2],115 % of control
C=CCCCCCCCCC(=O)NCC1CC1,T/C,[3],98 % of control
same,T/C,[4],92 % of control
same,T/C,[5],88 % of control
[B-][NH2+]CC[NH2+][B-],T/C,[6],117 % of control
CCC(/C=C/C(C)C1CCC2C3CC=C4CC(O)CCC4(C)C3CCC12C)C(C)C (stereo unspecified) (tested in a mixture with another compound),T/C,"dose: 100.0 mg/kg/injection, schedule: Q01DX001 (ip), vehicle: water",98 % of control
same,T/C,[3],89 % of control
same,T/C,"dose: 100.0 mg/kg/injection, schedule: Q04DX003 (ip), vehicle: saline",103 % of control
same,T/C,"dose: 200.0 mg/kg/injection, schedule: Q01DX001 (ip), vehicle: water",105 % of control and 94 % of control
same,T/C,"dose: 200.0 mg/kg/injection, schedule: Q04DX003 (ip), vehicle: saline",91 % of control
same,T/C,"dose: 400.0 mg/kg/injection, schedule: Q04DX003 (ip), vehicle: saline",91 % of control
O=C(Nc1cccc(C2=NCCN2)c1)Nc1cccc(C2=NCCN2)c1,T/C,"dose: 6.0 mg/kg/injection, schedule: Q01DX Z (ip), vehicle: water",104 % of control
same,T/C,"dose: 12.0 mg/kg/injection, schedule: Q01DX Z (ip), vehicle: water",101 % of control
same,T/C,"dose: 25.0 mg/kg/injection, schedule: Q01DX Z (ip), vehicle: water",97 % of control
Nc1ncnc2c1ncn2C1C=CC(CO)O1 (stereo unspecified),T/C,[7],102 % of control
same,T/C,[8],100 % of control
same,T/C,[6],102 % of control
C/C=C/C=C/COC(=O)C(C)(C)C,T/C,"dose: 50.0 mg/kg/injection, schedule: Q04DX002 (ip), vehicle: saline",103 % of control
same,T/C,"dose: 100.0 mg/kg/injection, schedule: Q04DX002 (ip), vehicle: saline",95 % of control and 96 % of control
same,T/C,"dose: 200.0 mg/kg/injection, schedule: Q04DX002 (ip), vehicle: saline",98 % of control
same,T/C,"dose: 400.0 mg/kg/injection, schedule: Q04DX002 (ip), vehicle: saline",96 % of control and 107 % of control
CN(C)Cc1ccccc1COC(=O)c1ccc(Br)cc1,T/C,"dose: 50.0 mg/kg/injection, schedule: Q04DX002 (ip), vehicle: Klucel (hydroxypropylcellulose) (HPC)",98 % of control
same,T/C,[1],105 % of control
same,T/C,[2],94 % of control
OCCNCc1ccc2ccccc2c1,T/C,"dose: 150.0 mg/kg/injection, schedule: Q01DX015 (ip), vehicle: saline",90 % of control
CC(C)(C)c1nc2cc(Cl)c(Cl)cc2[nH]1,T/C,"dose: 75.0 mg/kg/injection, schedule: Q01DX001 (ip), vehicle: other",102 % of control
same,T/C,"dose: 75.0 mg/kg/injection, schedule: Q01DX009 (ip), vehicle: saline with Tween-80",96 % of control
same,T/C,"dose: 75.0 mg/kg/injection, schedule: Q04DX003 (ip), vehicle: saline with Tween-80",103 % of control
same,T/C,"dose: 150.0 mg/kg/injection, schedule: Q01DX001 (ip), vehicle: other",96 % of control
same,T/C,"dose: 150.0 mg/kg/injection, schedule: Q01DX009 (ip), vehicle: saline with Tween-80",90 % of control
same,T/C,"dose: 150.0 mg/kg/injection, schedule: Q04DX003 (ip), vehicle: saline with Tween-80",110 % of control
same,T/C,"dose: 300.0 mg/kg/injection, schedule: Q01DX001 (ip), vehicle: other",109 % of control
same,T/C,"dose: 300.0 mg/kg/injection, schedule: Q01DX009 (ip), vehicle: saline with Tween-80",103 % of control
same,T/C,"dose: 300.0 mg/kg/injection, schedule: Q04DX003 (ip), vehicle: saline with Tween-80",107 % of control
Cc1c2oc3c(C)ccc(C(=O)NC4C(=O)NC(C(C)C)C(=O)N5CCCC5C(=O)N(C)CC(=O)N(C)C(C(C)C)C(=O)OC4C)c3nc-2c(C(=O)NC2C(=O)NC(C(C)C)C(=O)N3CCCC3C(=O)N(C)CC(=O)N(C)C(C(C)C)C(=O)OC2C)c(NCCCO)c1=O (stereo unspecified),T/C,"dose: 0.07 mg/kg/injection, schedule: Q04DX003 (ip), vehicle: saline + alcohol",95 % of control
same,T/C,"dose: 0.1 mg/kg/injection, schedule: Q01DX009 (ip), vehicle: saline + alcohol",116 % of control
same,T/C,"dose: 0.15 mg/kg/injection, schedule: Q04DX003 (ip), vehicle: saline + alcohol",107 % of control
same,T/C,"dose: 0.2 mg/kg/injection, schedule: Q01DX001 (ip), vehicle: saline + alcohol",106 % of control
same,T/C,"dose: 0.3 mg/kg/injection, schedule: Q04DX003 (ip), vehicle: saline + alcohol",108 % of control
same,T/C,"dose: 0.4 mg/kg/injection, schedule: Q01DX001 (ip), vehicle: saline + alcohol",107 % of control
same,T/C,"dose: 0.6 mg/kg/injection, schedule: Q04DX003 (ip), vehicle: saline + alcohol",114 % of control
same,T/C,"dose: 0.62 mg/kg/injection, schedule: Q04DX003 (ip), vehicle: saline + alcohol",111 % of control
same,T/C,"dose: 0.8 mg/kg/injection, schedule: Q01DX001 (ip), vehicle: saline + alcohol",103 % of control
same,T/C,"dose: 1.0 mg/kg/injection, schedule: Q01DX001 (ip), vehicle: saline + alcohol",112 % of control
same,T/C,"dose: 1.25 mg/kg/injection, schedule: Q04DX003 (ip), vehicle: saline + alcohol",121 % of control
same,T/C,"dose: 1.6 mg/kg/injection, schedule: Q01DX001 (ip), vehicle: saline + alcohol",95 % of control
same,T/C,"dose: 2.0 mg/kg/injection, schedule: Q01DX001 (ip), vehicle: saline + alcohol",121 % of control
same,T/C,"dose: 3.2 mg/kg/injection, schedule: Q01DX001 (ip), vehicle: saline + alcohol",104 % of control
same,T/C,"dose: 4.0 mg/kg/injection, schedule: Q01DX001 (ip), vehicle: saline + alcohol",121 % of control
same,T/C,"dose: 5.0 mg/kg/injection, schedule: Q04DX003 (ip), vehicle: saline + alcohol",160 % of control
same,T/C,"dose: 12.5 micrograms/kg/injection, schedule: Q01DX009 (ip), vehicle: saline + alcohol",101 % of control and 116 % of control
same,T/C,"dose: 25.0 micrograms/kg/injection, schedule: Q01DX009 (ip), vehicle: saline + alcohol",98 % of control
same,T/C,"dose: 50.0 micrograms/kg/injection, schedule: Q01DX009 (ip), vehicle: saline + alcohol",106 % of control
COC1OC(COS(=O)(=O)c2ccc(C)cc2)C(N(C)C(C)=O)C1OS(=O)(=O)c1ccc(C)cc1 (stereo unspecified),T/C,"dose: 100.0 mg/kg/injection, schedule: Q01DX001 (ip), vehicle: carboxymethylcellulose (CMC)",96 % of control
same,T/C,"dose: 200.0 mg/kg/injection, schedule: Q01DX001 (ip), vehicle: carboxymethylcellulose (CMC)",91 % of control
same,T/C,"dose: 400.0 mg/kg/injection, schedule: Q01DX001 (ip), vehicle: carboxymethylcellulose (CMC)",91 % of control
Cc1cc(Nc2ccc(N=Nc3ccc(O)c4ncccc34)cc2)nc(C)n1,T/C,[7],102 % of control
same,T/C,[8],105 % of control
same,T/C,[6],103 % of control
NOCC(=O)O,T/C,"dose: 5.0 mg/kg/injection, schedule: Q01DX Z (ip), vehicle: saline",112 % of control
same,T/C,"dose: 8.0 mg/kg/injection, schedule: Q01DX Z (ip), vehicle: saline",97 % of control
same,T/C,"dose: 12.0 mg/kg/injection, schedule: Q01DX Z (ip), vehicle: saline",103 % of control
same,T/C,"dose: 12.5 mg/kg/injection, schedule: Q01DX001 (ip), vehicle: carboxymethylcellulose (CMC)",106 % of control
same,T/C,"dose: 18.0 mg/kg/injection, schedule: Q01DX Z (ip), vehicle: saline",103 % of control
same,T/C,"dose: 25.0 mg/kg/injection, schedule: Q01DX001 (ip), vehicle: carboxymethylcellulose (CMC)",97 % of control
same,T/C,"dose: 50.0 mg/kg/injection, schedule: Q01DX001 (ip), vehicle: carboxymethylcellulose (CMC)",95 % of control
CC(C)C(CN)(CCCCN1CCOCC1)c1cccc2ccccc12 (stereo unspecified),T/C,[3],100 % of control
same,T/C,[4],95 % of control
same,T/C,[5],95 % of control
O=C1C(=O)c2ccc(Br)cc2C(O)=C1C(c1ccccc1)c1ccccc1,T/C,[7],100 % of control
same,T/C,[8],106 % of control
same,T/C,[6],96 % of control
C[n+]1ccnc2ccccc21,T/C,"dose: 10.0 mg/kg/injection, schedule: Q01DX009 (ip), vehicle: saline with Tween-80",105 % of control
same,T/C,"dose: 20.0 mg/kg/injection, schedule: Q01DX009 (ip), vehicle: saline with Tween-80",105 % of control
same,T/C,"dose: 40.0 mg/kg/injection, schedule: Q01DX009 (ip), vehicle: saline with Tween-80",104 % of control
